O=C1C=CC(=O)N1c1cc(F)c(Br)c(F)c1
solubility (mole fraction) (in 1,4-dioxane, 287.65 K): 0.0122
solubility (mole fraction) (in 1,4-dioxane, 290.65 K): 0.0133
solubility (mole fraction) (in 1,4-dioxane, 293.85 K): 0.0146
solubility (mole fraction) (in 1,4-dioxane, 297.15 K): 0.016
solubility (mole fraction) (in 1,4-dioxane, 302.05 K): 0.0183
solubility (mole fraction) (in 1,4-dioxane, 306.25 K): 0.0206
solubility (mole fraction) (in 1,4-dioxane, 310.05 K): 0.023
solubility (mole fraction) (in 1,4-dioxane, 317.15 K): 0.0281
solubility (mole fraction) (in 1,4-dioxane, 321.65 K): 0.0318
solubility (mole fraction) (in 1,4-dioxane, 324.45 K): 0.0342
solubility (mole fraction) (in 1,4-dioxane, 330.85 K): 0.0408
solubility (mole fraction) (in 1,4-dioxane, 335.35 K): 0.0464
solubility (mole fraction) (in 1,4-dioxane, 339.15 K): 0.0513
solubility (mole fraction) (in 1,4-dioxane, 342.25 K): 0.0558
solubility (mole fraction) (in 1,4-dioxane, 347.25 K): 0.0639
solubility (mole fraction) (in 1,4-dioxane, 353.65 K): 0.0759
solubility (mole fraction) (in 2-butanone, 289.75 K): 0.0086
solubility (mole fraction) (in 2-butanone, 299.25 K): 0.0112
solubility (mole fraction) (in 2-butanone, 303.5 K): 0.0128
solubility (mole fraction) (in 2-butanone, 308.75 K): 0.0149
solubility (mole fraction) (in 2-butanone, 313 K): 0.017
solubility (mole fraction) (in 2-butanone, 316.25 K): 0.0187
solubility (mole fraction) (in 2-butanone, 318.6 K): 0.0202
solubility (mole fraction) (in 2-butanone, 321.75 K): 0.022
solubility (mole fraction) (in 2-butanone, 324.25 K): 0.0237
solubility (mole fraction) (in 2-butanone, 327.05 K): 0.0257
solubility (mole fraction) (in 2-butanone, 331.95 K): 0.0296
solubility (mole fraction) (in 2-butanone, 335.25 K): 0.0326
solubility (mole fraction) (in 2-butanone, 338.85 K): 0.036
solubility (mole fraction) (in 2-butanone, 341.55 K): 0.039
solubility (mole fraction) (in 2-butanone, 343.5 K): 0.0411
solubility (mole fraction) (in 2-butanone, 345.25 K): 0.0432
solubility (mole fraction) (in DMF, 289.45 K): 0.0208
solubility (mole fraction) (in DMF, 293.65 K): 0.0228
solubility (mole fraction) (in DMF, 300.83 K): 0.0269
solubility (mole fraction) (in DMF, 305.65 K): 0.0301
solubility (mole fraction) (in DMF, 308.85 K): 0.0324
solubility (mole fraction) (in DMF, 317.55 K): 0.0398
solubility (mole fraction) (in DMF, 320.45 K): 0.0426
solubility (mole fraction) (in DMF, 322.95 K): 0.0452
solubility (mole fraction) (in DMF, 325.25 K): 0.0477
solubility (mole fraction) (in DMF, 333.55 K): 0.0582
solubility (mole fraction) (in DMF, 337.65 K): 0.0643
solubility (mole fraction) (in DMF, 342.65 K): 0.0722
solubility (mole fraction) (in DMF, 346.65 K): 0.0794
solubility (mole fraction) (in DMF, 350.75 K): 0.0876
solubility (mole fraction) (in DMF, 353.35 K): 0.0932
solubility (mole fraction) (in DMF, 356.25 K): 0.1
solubility (mole fraction) (in DMSO, 289.35 K): 0.0116
solubility (mole fraction) (in DMSO, 293.65 K): 0.0131
solubility (mole fraction) (in DMSO, 297.05 K): 0.0143
solubility (mole fraction) (in DMSO, 301.45 K): 0.0161
solubility (mole fraction) (in DMSO, 305.95 K): 0.0184
solubility (mole fraction) (in DMSO, 309.45 K): 0.0202
solubility (mole fraction) (in DMSO, 314.05 K): 0.0231
solubility (mole fraction) (in DMSO, 318.15 K): 0.026
solubility (mole fraction) (in DMSO, 324.55 K): 0.0314
solubility (mole fraction) (in DMSO, 328.05 K): 0.0348
solubility (mole fraction) (in DMSO, 333.65 K): 0.0406
solubility (mole fraction) (in DMSO, 338.85 K): 0.0473
solubility (mole fraction) (in DMSO, 342.55 K): 0.0527
solubility (mole fraction) (in DMSO, 346.05 K): 0.058
solubility (mole fraction) (in DMSO, 349.35 K): 0.0637
solubility (mole fraction) (in DMSO, 355.95 K): 0.0768
solubility (mole fraction) (in cyclohexanone, 285.15 K): 0.0129
solubility (mole fraction) (in cyclohexanone, 291.25 K): 0.0151
solubility (mole fraction) (in cyclohexanone, 295.15 K): 0.0167
solubility (mole fraction) (in cyclohexanone, 300.15 K): 0.0191
solubility (mole fraction) (in cyclohexanone, 305.65 K): 0.0221
solubility (mole fraction) (in cyclohexanone, 311.65 K): 0.0259
solubility (mole fraction) (in cyclohexanone, 316.55 K): 0.0295
solubility (mole fraction) (in cyclohexanone, 321.85 K): 0.0342
solubility (mole fraction) (in cyclohexanone, 324.95 K): 0.037
solubility (mole fraction) (in cyclohexanone, 328.75 K): 0.0411
solubility (mole fraction) (in cyclohexanone, 333.25 K): 0.0462
solubility (mole fraction) (in cyclohexanone, 337.35 K): 0.0515
solubility (mole fraction) (in cyclohexanone, 341.35 K): 0.0572
solubility (mole fraction) (in cyclohexanone, 348.35 K): 0.069
solubility (mole fraction) (in cyclohexanone, 351.65 K): 0.0751
solubility (mole fraction) (in cyclohexanone, 355.05 K): 0.0823
solubility (mole fraction) (in toluene, 291.05 K): 0.0031
solubility (mole fraction) (in toluene, 296.35 K): 0.0037
solubility (mole fraction) (in toluene, 299.15 K): 0.0041
solubility (mole fraction) (in toluene, 302.95 K): 0.0047
solubility (mole fraction) (in toluene, 306.05 K): 0.0053
solubility (mole fraction) (in toluene, 310.15 K): 0.0061
solubility (mole fraction) (in toluene, 315.95 K): 0.0075
solubility (mole fraction) (in toluene, 321.05 K): 0.0089
solubility (mole fraction) (in toluene, 325.15 K): 0.0103
solubility (mole fraction) (in toluene, 330.65 K): 0.0124
solubility (mole fraction) (in toluene, 334.45 K): 0.014
solubility (mole fraction) (in toluene, 340.75 K): 0.0175
solubility (mole fraction) (in toluene, 343.55 K): 0.0192
solubility (mole fraction) (in toluene, 348.45 K): 0.0226
solubility (mole fraction) (in toluene, 350.65 K): 0.0244
solubility (mole fraction) (in toluene, 354.45 K): 0.0276

Reference: BigSolDB 2.1
